Measurements reported in patent publication US20140155580A1, “TRANSGENIC AVES PRODUCING HUMAN POLYCLONAL ANTIBODIES” (Synageva BioPharma Corp., priority 2003, published 2014).

Tested on: chicken embryonic stem cells
Test: Titration kill curve: cES cells in culture exposed to puromycin or neomycin
Format: cell-based
Parameters: key to Morphology of cES cells: ES: ES cells are present.; diff: ES cells are differentiated.; gone: no morphologically recognizable cells are present
Protocol: In a preferred embodiment, the concentration of puromycin required for selecting transfected cells is calculated as a titration kill curve. Titration kill curves for chicken embryonic stem cells are established by exposing cells in culture to puromycin concentrations varying from 0.0 to 1.0 μg/ml for 10 days (Table 7) and neomycin concentrations varying from 0.0 to 200 μg/ml (Table 8). The medium is changed every 2 days and fresh puromycin or neomycin is added. […] Puromycin concentrations of 0.3-1.0 μg/ml are used for selection of the transfected cultures. Neomycin concentrations over 40 μg/ml eliminated all cES cells within 7 days (Table 8).

For `COc1ccc(C[C@H](N)C(=O)N[C@H]2[C@@H](O)[C@H](n3cnc4c(N(C)C)ncnc43)O[C@@H]2CO)cc1` [Puromycin, puromycin], the “Presence of ES cells in wells after exposure” value (0.3 μg/ml puromycin, 3 changes of medium with fresh puromycin over a six day period) was “absent from all wells”, the “Morphology of cES cells” value (puromycin 0.1 μg/ml, day 1 under selection) was “ES” and the “Morphology of cES cells” value (puromycin 0.1 μg/ml, day 2 under selection) was “ES”. The “Morphology of cES cells” value (puromycin 0.1 μg/ml, day 3 under selection) was “ES”, the “Morphology of cES cells” value (puromycin 0.1 μg/ml, day 4 under selection) was “ES” and the “Morphology of cES cells” value (puromycin 0.1 μg/ml, day 5 under selection) was “ES”. The “Morphology of cES cells” value (puromycin 0.1 μg/ml, day 6 under selection) was “ES”, the “Morphology of cES cells” value (puromycin 0.1 μg/ml, day 7 under selection) was “ES” and the “Morphology of cES cells” value (puromycin 0.1 μg/ml, day 8 under selection) was “ES”. The “Morphology of cES cells” value (puromycin 0.1 μg/ml, day 9 under selection) was “ES”, the “Morphology of cES cells” value (puromycin 0.1 μg/ml, day 10 under selection) was “ES” and the “Morphology of cES cells” value (puromycin 0.2 μg/ml, day 1 under selection) was “ES”. For the same compound, the “Morphology of cES cells” value (puromycin 0.2 μg/ml, day 2 under selection) was “ES”, the “Morphology of cES cells” value (puromycin 0.2 μg/ml, day 3 under selection) was “ES” and the “Morphology of cES cells” value (puromycin 0.2 μg/ml, day 4 under selection) was “ES”. The “Morphology of cES cells” value (puromycin 0.2 μg/ml, day 5 under selection) was “ES”, the “Morphology of cES cells” value (puromycin 0.2 μg/ml, day 6 under selection) was “ES” and the “Morphology of cES cells” value (puromycin 0.2 μg/ml, day 7 under selection) was “ES”. The “Morphology of cES cells” value (puromycin 0.2 μg/ml, day 8 under selection) was “ES”, the “Morphology of cES cells” value (puromycin 0.2 μg/ml, day 9 under selection) was “ES” and the “Morphology of cES cells” value (puromycin 0.2 μg/ml, day 10 under selection) was “ES”. For the same compound, the “Morphology of cES cells” value (puromycin 0.25 μg/ml, day 1 under selection) was “ES”, the “Morphology of cES cells” value (puromycin 0.25 μg/ml, day 2 under selection) was “ES” and the “Morphology of cES cells” value (puromycin 0.25 μg/ml, day 3 under selection) was “ES”. The “Morphology of cES cells” value (puromycin 0.25 μg/ml, day 4 under selection) was “ES”, the “Morphology of cES cells” value (puromycin 0.25 μg/ml, day 5 under selection) was “ES” and the “Morphology of cES cells” value (puromycin 0.25 μg/ml, day 6 under selection) was “diff”. The “Morphology of cES cells” value (puromycin 0.25 μg/ml, day 7 under selection) was “diff”, the “Morphology of cES cells” value (puromycin 0.3 μg/ml, day 1 under selection) was “ES” and the “Morphology of cES cells” value (puromycin 0.3 μg/ml, day 2 under selection) was “ES”. For the same compound, the “Morphology of cES cells” value (puromycin 0.3 μg/ml, day 3 under selection) was “diff”, the “Morphology of cES cells” value (puromycin 0.3 μg/ml, day 6 under selection) was “gone” and the “Morphology of cES cells” value (puromycin 0.3 μg/ml, day 7 under selection) was “gone”. For the same compound, the “Morphology of cES cells” value (puromycin 0.3 μg/ml, day 8 under selection) was “gone”, the “Morphology of cES cells” value (puromycin 0.3 μg/ml, day 9 under selection) was “gone” and the “Morphology of cES cells” value (puromycin 0.3 μg/ml, day 10 under selection) was “gone”. The “Morphology of cES cells” value (puromycin 0.4 μg/ml, day 1 under selection) was “ES”, the “Morphology of cES cells” value (puromycin 0.4 μg/ml, day 2 under selection) was “diff” and the “Morphology of cES cells” value (puromycin 0.4 μg/ml, day 3 under selection) was “gone”. For the same compound, the “Morphology of cES cells” value (puromycin 0.4 μg/ml, day 4 under selection) was “gone”, the “Morphology of cES cells” value (puromycin 0.4 μg/ml, day 5 under selection) was “gone” and the “Morphology of cES cells” value (puromycin 0.4 μg/ml, day 6 under selection) was “gone”. The “Morphology of cES cells” value (puromycin 0.4 μg/ml, day 7 under selection) was “gone”, the “Morphology of cES cells” value (puromycin 0.4 μg/ml, day 8 under selection) was “gone” and the “Morphology of cES cells” value (puromycin 0.4 μg/ml, day 9 under selection) was “gone”. The “Morphology of cES cells” value (puromycin 0.4 μg/ml, day 10 under selection) was “gone”, the “Morphology of cES cells” value (puromycin 0.5 μg/ml, day 1 under selection) was “diff” and the “Morphology of cES cells” value (puromycin 0.5 μg/ml, day 2 under selection) was “gone”. For the same compound, the “Morphology of cES cells” value (puromycin 0.5 μg/ml, day 3 under selection) was “gone”, the “Morphology of cES cells” value (puromycin 0.5 μg/ml, day 4 under selection) was “gone” and the “Morphology of cES cells” value (puromycin 0.5 μg/ml, day 5 under selection) was “gone”. The “Morphology of cES cells” value (puromycin 0.5 μg/ml, day 6 under selection) was “gone”, the “Morphology of cES cells” value (puromycin 0.5 μg/ml, day 7 under selection) was “gone” and the “Morphology of cES cells” value (puromycin 0.5 μg/ml, day 8 under selection) was “gone”. For the same compound, the “Morphology of cES cells” value (puromycin 0.5 μg/ml, day 9 under selection) was “gone”, the “Morphology of cES cells” value (puromycin 0.5 μg/ml, day 10 under selection) was “gone” and the “Morphology of cES cells” value (puromycin 0.6 μg/ml, day 1 under selection) was “diff”. For the same compound, the “Morphology of cES cells” value (puromycin 0.6 μg/ml, day 2 under selection) was “gone”, the “Morphology of cES cells” value (puromycin 0.6 μg/ml, day 3 under selection) was “gone” and the “Morphology of cES cells” value (puromycin 0.6 μg/ml, day 4 under selection) was “gone”. For the same compound, the “Morphology of cES cells” value (puromycin 0.6 μg/ml, day 5 under selection) was “gone”, the “Morphology of cES cells” value (puromycin 0.6 μg/ml, day 6 under selection) was “gone” and the “Morphology of cES cells” value (puromycin 0.6 μg/ml, day 7 under selection) was “gone”. The “Morphology of cES cells” value (puromycin 0.6 μg/ml, day 8 under selection) was “gone”, the “Morphology of cES cells” value (puromycin 0.6 μg/ml, day 9 under selection) was “gone” and the “Morphology of cES cells” value (puromycin 0.6 μg/ml, day 10 under selection) was “gone”. The “Morphology of cES cells” value (puromycin 0.7 μg/ml, day 1 under selection) was “diff”, the “Morphology of cES cells” value (puromycin 0.7 μg/ml, day 2 under selection) was “gone” and the “Morphology of cES cells” value (puromycin 0.7 μg/ml, day 3 under selection) was “gone”. The “Morphology of cES cells” value (puromycin 0.7 μg/ml, day 4 under selection) was “gone”, the “Morphology of cES cells” value (puromycin 0.7 μg/ml, day 5 under selection) was “gone” and the “Morphology of cES cells” value (puromycin 0.7 μg/ml, day 6 under selection) was “gone”. For the same compound, the “Morphology of cES cells” value (puromycin 0.7 μg/ml, day 7 under selection) was “gone”, the “Morphology of cES cells” value (puromycin 0.7 μg/ml, day 8 under selection) was “gone” and the “Morphology of cES cells” value (puromycin 0.7 μg/ml, day 9 under selection) was “gone”. The “Morphology of cES cells” value (puromycin 0.7 μg/ml, day 10 under selection) was “gone”, the “Morphology of cES cells” value (puromycin 0.8 μg/ml, day 1 under selection) was “gone” and the “Morphology of cES cells” value (puromycin 0.8 μg/ml, day 2 under selection) was “gone”. The “Morphology of cES cells” value (puromycin 0.8 μg/ml, day 3 under selection) was “gone”, the “Morphology of cES cells” value (puromycin 0.8 μg/ml, day 4 under selection) was “gone” and the “Morphology of cES cells” value (puromycin 0.8 μg/ml, day 5 under selection) was “gone”. The “Morphology of cES cells” value (puromycin 0.8 μg/ml, day 6 under selection) was “gone”, the “Morphology of cES cells” value (puromycin 0.8 μg/ml, day 7 under selection) was “gone” and the “Morphology of cES cells” value (puromycin 0.8 μg/ml, day 8 under selection) was “gone”. The “Morphology of cES cells” value (puromycin 0.8 μg/ml, day 9 under selection) was “gone” and the “Morphology of cES cells” value (puromycin 0.8 μg/ml, day 10 under selection) was “gone”.
